Data: US6413761B2, “Decaprenyl diphosphate synthetase gene” (Toyota Jidosha Kabushiki Kaisha, priority 1997, dated 2002)

System: DPP synthetase
Test: Substrate specificity of the DPP synthetase on various allylic primers ([14C]IPP incorporation)
Type: biochemical, Paracoccus denitrificans
Conditions: for Enzyme Activity: allylic primer 25 μM, [14C]IPP 125 μM, 37° C., 1 hour; for Activity of the DPP synthetase with the allylic substrate (in words): substance used as allylic primer substrate
Protocol: A 200 μl reaction solution shown below was prepared using an appropriate amount of the crude enzyme extract, various allylic primers and [^1-14C]IPP (54 or 57 Ci/mol; Amersham).
The solution was incubated at 37° C. for 1 hour to allow an enzyme reaction. Then, 200 μl of saturated aqueous NaCl solution and 1 ml of n-BuOH saturated with saturated aqueous NaCl solution were added thereto and agitated well. The resultant solution was centrifuged to extract the reaction products. 200 μl of the BuOH layer was collected, and 3 ml of Clear Sol was added thereto. Then, the enzyme activity was determined by measuring the radioactivity in the BuOH extract with a liquid scintillation counter. The enzyme activity was expressed in unit, one unit being the amount of IPP (nmol) taken into the reaction products per 1 minute.
The substrate specificity of this DPP synthetase has been examined on various allyl primers. The unit of enzyme activity is as defined above.

SMILES	Enzyme Activity (+Triton X-100 (0.5%))	Activity of the DPP synthetase with the allylic substrate (in words)	Enzyme Activity (−Triton X-100)
CC(C)=CCC/C(C)=C/CC/C(C)=C/CC/C(C)=C\COP(=O)(O)OP(=O)(O)O [ZEE-GGPP, ZEE-geranylgeranyl diphosphate]	3.68 ×10^−3 unit	little activity	2.47 ×10^−3 unit
CC(C)=CCC/C(C)=C/COP(=O)(O)OP(=O)(O)O [GPP, geranyl diphosphate]	19.8 ×10^−3 unit	slight activity	1.78 ×10^−3 unit
CC(C)=CCC/C(C)=C/CC/C(C)=C/CC/C(C)=C/COP(=O)(O)OP(=O)(O)O [EEE-GGPP, EEE-geranylgeranyl diphosphate]	35.33 ×10^−3 unit	strong activity	3.22 ×10^−3 unit
